As usually defined, the IC50 is the concentration that gives 50% inhibition.

Structures are written as SMILES. Structures can show the parent of a compound that is named as a salt.

Assay [1] addresses PI3Kγ (p110γ) Recombinant Human Protein (Homo sapiens (Human), UniProt P48736). The experiment in a line: PI3K-γ scintillation proximity assay. The assay is classed as biochemical. The settings on record: scintillation proximity assay, recombinant human p110γ. The source says: Example B. PI3K-γ Scintillation Proximity Assay
Materials: [γ-^33P]ATP (10 mCi/mL) and Wheat Germ Agglutinin (WGA) YSi SPA Scintillation Beads was purchased from Perkin Elmer (Waltham, MA). Lipid kinase substrate, D-myo-Phosphatidylinositol 4,5-bisphosphate (PtdIns(4,5)P2)D (+)-sn-1,2-di-O-octanoylglyceryl, 3-O-phospho linked (PIP2), CAS 204858-53-7, was purchased from Echelon Biosciences (Salt Lake City, UT). PI3Kγ (p110γ) Recombinant Human Protein was purchased from Life technology (Grand Island, NY). ATP, MgCl2, DTT, EDTA, MOPS and CHAPS were purchased from Sigma Aldrich (St. Louis, MO).
(§1) The kinase reaction was conducted in polystyrene 384-well Greiner Bio-one white plate from Thermo Fisher Scientific in a final volume of 25 L. Inhibitors were first diluted serially in DMSO and added to the plate wells before the addition of other reaction components. The final concentration of DMSO in the assay was 2%. The PI3Kγ assay was carried out at room temperature in 20 mM MOPS, pH 6.7, 10 mM MgCl2, 5 mM DTT and CHAPS 0.03%. Reactions were initiated by the addition of ATP, the final reaction mixture consisted of 20 µM […], 0.5 μCi [γ-^33P]ATP, 13 nM PI3Kγ. Reactions were incubated for 120 min and terminated by the addition of 40 μL SPA beads suspended in quench buffer: 163 mM potassium phosphate pH 7.8, 20% glycerol, 25 mM EDTA. The final concentration of SPA beads is 1.0 mg/mL. After the plate sealing, plates were shaken overnight at room temperature and centrifuged at 1500 rpm for 10 min, the radioactivity of the product was determined by scintillation counting on Topcount (Perkin-Elmer). IC50 determination was performed by fitting the curve of percent of the solvent control activity versus the log of the inhibitor concentration using the GraphPad Prism 6.0 software.
(§2) The compounds of the Examples were tested in the assays described in Examples A, B and C and found to have the IC50s are shown in Tables A1, A2, A3 and A4.

Assay [2] concerns the target PI3Kδ (p1106/p85a) Recombinant Human Protein (Homo sapiens (Human), UniProt O00329). The experiment in a line: PI3Kδ scintillation proximity assay. The class given is biochemical. The settings on record: scintillation proximity assay, recombinant human PI3Kδ.
Description: Example C. PI3Kδ Scintillation Proximity Assay
Materials: [γ-^33P]ATP (10 mCi/mL) and Wheat Germ Agglutinin (WGA) YSi SPA Scintillation Beads was purchased from Perkin Elmer (Waltham, MA). Lipid kinase substrate, D-myo-Phosphatidylinositol 4,5-bisphosphate (PtdIns(4,5)P2)D (+)-sn-1,2-di-O-octanoylglyceryl, 3-O-phospho linked (PIP2), CAS 204858-53-7, was purchased from Echelon Biosciences (Salt Lake City, UT). PI3Kδ (p1106/p85a) Recombinant Human Protein was purchased from Eurofins (St Charles, MO). ATP, MgCl2, DTT, EDTA, MOPS and CHAPS were purchased from Sigma Aldrich (St. Louis, MO).
as §1, with “25 μL.” for “25 L.”, “The PI3Kδ” for “The PI3Kγ”, “[γ-^33P]ATP, 3.4” for “[γ-^33P]ATP, 13”, “nM PI3Kδ.” for “nM PI3Kγ.”, “Topcount (PerkinElmer).” for “Topcount (Perkin-Elmer).”
as §2
Background: Scintillation proximity formats need no separation of bound from free tracer.

Chain of PI3Kγ (p110γ) Recombinant Human Protein (P48736 whole entry): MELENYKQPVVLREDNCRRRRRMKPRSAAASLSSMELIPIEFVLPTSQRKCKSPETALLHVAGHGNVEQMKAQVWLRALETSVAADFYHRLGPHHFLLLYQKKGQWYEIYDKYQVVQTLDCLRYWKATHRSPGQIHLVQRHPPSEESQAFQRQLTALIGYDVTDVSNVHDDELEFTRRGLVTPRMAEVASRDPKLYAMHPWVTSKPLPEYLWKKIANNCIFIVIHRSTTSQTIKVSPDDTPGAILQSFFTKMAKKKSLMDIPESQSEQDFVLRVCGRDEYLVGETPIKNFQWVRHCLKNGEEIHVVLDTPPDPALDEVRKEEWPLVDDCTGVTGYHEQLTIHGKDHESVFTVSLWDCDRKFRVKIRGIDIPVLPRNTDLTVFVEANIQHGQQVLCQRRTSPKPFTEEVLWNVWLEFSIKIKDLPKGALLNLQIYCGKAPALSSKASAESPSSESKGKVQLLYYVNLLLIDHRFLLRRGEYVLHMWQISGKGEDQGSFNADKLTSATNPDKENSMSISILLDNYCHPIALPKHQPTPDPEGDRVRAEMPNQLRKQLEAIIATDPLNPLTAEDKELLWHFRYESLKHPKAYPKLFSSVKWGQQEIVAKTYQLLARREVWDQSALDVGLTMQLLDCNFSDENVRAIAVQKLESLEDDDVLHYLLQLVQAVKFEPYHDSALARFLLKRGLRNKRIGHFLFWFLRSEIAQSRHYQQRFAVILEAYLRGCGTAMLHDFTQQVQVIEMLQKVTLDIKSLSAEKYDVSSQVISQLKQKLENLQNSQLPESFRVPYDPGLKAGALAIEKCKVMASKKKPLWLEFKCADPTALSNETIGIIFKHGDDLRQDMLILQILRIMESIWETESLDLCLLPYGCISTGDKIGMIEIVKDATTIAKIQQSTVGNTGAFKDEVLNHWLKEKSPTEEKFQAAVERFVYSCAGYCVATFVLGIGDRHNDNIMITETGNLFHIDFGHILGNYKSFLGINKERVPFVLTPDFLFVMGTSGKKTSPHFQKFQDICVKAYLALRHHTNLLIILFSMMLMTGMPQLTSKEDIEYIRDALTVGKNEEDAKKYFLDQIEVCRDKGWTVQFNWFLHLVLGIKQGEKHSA
Chain of PI3Kδ (p1106/p85a) Recombinant Human Protein (O00329 whole entry): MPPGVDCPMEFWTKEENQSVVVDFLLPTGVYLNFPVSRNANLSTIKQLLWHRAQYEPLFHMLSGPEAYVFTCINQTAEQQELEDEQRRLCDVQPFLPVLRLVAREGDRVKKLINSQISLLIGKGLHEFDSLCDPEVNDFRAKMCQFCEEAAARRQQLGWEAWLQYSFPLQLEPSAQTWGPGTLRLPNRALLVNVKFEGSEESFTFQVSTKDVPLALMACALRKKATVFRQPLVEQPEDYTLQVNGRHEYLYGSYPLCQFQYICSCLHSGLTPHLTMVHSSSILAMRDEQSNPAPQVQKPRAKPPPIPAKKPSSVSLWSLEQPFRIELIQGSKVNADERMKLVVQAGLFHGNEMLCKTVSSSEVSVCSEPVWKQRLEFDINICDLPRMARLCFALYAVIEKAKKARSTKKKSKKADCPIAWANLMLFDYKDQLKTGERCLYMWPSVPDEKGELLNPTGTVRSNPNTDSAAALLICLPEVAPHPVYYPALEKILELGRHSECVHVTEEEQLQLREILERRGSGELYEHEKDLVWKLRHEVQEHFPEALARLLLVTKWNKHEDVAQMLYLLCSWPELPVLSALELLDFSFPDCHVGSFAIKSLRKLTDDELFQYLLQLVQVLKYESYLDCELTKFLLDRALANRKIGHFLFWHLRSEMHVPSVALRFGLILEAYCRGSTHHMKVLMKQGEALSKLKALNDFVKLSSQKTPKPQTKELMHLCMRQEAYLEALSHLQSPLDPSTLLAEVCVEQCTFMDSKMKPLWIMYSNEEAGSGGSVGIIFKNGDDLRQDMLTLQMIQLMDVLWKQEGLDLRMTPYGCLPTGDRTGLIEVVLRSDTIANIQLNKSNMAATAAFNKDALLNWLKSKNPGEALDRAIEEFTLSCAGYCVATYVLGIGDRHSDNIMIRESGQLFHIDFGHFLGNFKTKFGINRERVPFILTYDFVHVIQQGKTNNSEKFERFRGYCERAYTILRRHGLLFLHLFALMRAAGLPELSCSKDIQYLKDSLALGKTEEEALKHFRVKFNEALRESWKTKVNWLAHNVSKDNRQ
Chain of PI3Kδ (p1106/p85a) Recombinant Human Protein (P27986 whole entry partner): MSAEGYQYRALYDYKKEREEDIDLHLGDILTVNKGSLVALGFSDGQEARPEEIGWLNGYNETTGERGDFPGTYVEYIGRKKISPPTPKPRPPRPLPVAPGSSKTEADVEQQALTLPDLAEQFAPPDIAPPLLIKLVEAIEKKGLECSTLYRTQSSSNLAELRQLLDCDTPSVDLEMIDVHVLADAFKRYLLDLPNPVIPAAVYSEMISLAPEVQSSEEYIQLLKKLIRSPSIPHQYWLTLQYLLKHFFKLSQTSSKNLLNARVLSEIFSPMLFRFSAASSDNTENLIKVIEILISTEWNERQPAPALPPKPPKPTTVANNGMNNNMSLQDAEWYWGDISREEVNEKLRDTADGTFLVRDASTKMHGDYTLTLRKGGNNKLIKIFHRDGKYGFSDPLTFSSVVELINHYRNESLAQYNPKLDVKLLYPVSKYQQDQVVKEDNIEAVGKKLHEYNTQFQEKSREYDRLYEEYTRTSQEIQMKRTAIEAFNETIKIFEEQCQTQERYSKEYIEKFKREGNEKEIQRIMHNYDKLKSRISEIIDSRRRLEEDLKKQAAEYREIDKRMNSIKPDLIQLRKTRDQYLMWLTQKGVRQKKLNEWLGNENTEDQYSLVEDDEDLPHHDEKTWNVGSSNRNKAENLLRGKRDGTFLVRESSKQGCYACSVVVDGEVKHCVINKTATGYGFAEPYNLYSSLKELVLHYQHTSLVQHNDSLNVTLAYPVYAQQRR

Regarding `Cc1ccc(C(O)(C(N)=O)C(F)(F)F)cc1-c1cnc(N)c(C#Cc2ccc(C#N)cc2)n1` (stereo not drawn) [Example 58, 2-(3-(5-amino-6-((4-cyanophenyl)ethynyl)pyrazin-2-yl)-4-methylphenyl)-3,3,3-trifluoro-2-hydroxypropanamide], the IC50 in assay [1] (Table A2) and in assay [2] (Table A2) was < 100 nM throughout.

In the case of `Cc1ccc(C(O)(C(N)=O)C(F)(F)F)cc1-c1cnc(N)c(C#Cc2cncnc2)n1` (stereo not drawn) [Example 56, 2-(3-(5-amino-6-(pyrimidin-5-ylethynyl)pyrazin-2-yl)-4-methylphenyl)-3,3,3-trifluoro-2-hydroxypropanamide], the concentration for half-maximal inhibition (IC50) in assay [1] (Table A2) and in assay [2] (Table A2) was < 100 nM in each case.

Take `Cc1ccc(C(O)(C(N)=O)C(F)(F)F)cc1-c1cnc(N)c(C(=O)N2CCC2(C)C)n1` (stereo not drawn) [Example 27, 2-(3-(5-amino-6-(2,2-dimethylazetidine-1-carbonyl)pyrazin-2-yl)-4-methylphenyl)-3,3,3-trifluoro-2-hydroxypropanamide]: the IC50 in assay [1] (Table A1) and in assay [2] (Table A1) was < 100 nM each time.

Turning to `Cc1ccc(C(O)(C(N)=O)C(F)(F)F)cc1-c1cnc(N)c(C#Cc2cn3ccnc3cn2)n1` (stereo not drawn) [Example 68, 2-(3-(5-amino-6-(imidazo[1,2-a]pyrazin-6-ylethynyl)pyrazin-2-yl)-4-methylphenyl)-3,3,3-trifluoro-2-hydroxypropanamide], the IC50 in assay [1] (Table A2) and in assay [2] (Table A2) was < 100 nM throughout.

With `CC(=O)NCC(O)(c1ccc(C)c(-c2cnc(N)c(-c3cn[nH]c3)n2)c1)C(F)(F)F` (stereo not drawn) [Example 105, N-(2-(3-(5-amino-6-(1H-pyrazol-4-yl)pyrazin-2-yl)-4-methylphenyl)-3,3,3-trifluoro-2-hydroxypropyl)acetamide trifluoroacetate], the IC50 in assay [1] (Table A3) and in assay [2] (Table A3) was < 100 nM each time.

As for `Cc1ccc(C(O)(C(N)=O)C(F)(F)F)cc1-c1cnc(N)c(-c2ccnn2C)n1` (stereo not drawn) [Example 69, 2-(3-(5-Amino-6-(1-methyl-1H-pyrazol-5-yl)pyrazin-2-yl)-4-methylphenyl)-3,3,3-trifluoro-2-hydroxypropanamide trifluoroacetate], the half-maximal inhibitory concentration (IC50) in assay [1] (Table A3) and in assay [2] (Table A3) was < 100 nM in each case.

Regarding `Cc1ccc(C(O)(C(N)=O)C(F)(F)F)cc1-c1cnc(N)c(C(=O)NCC2(C#N)CCC2)n1` (stereo not drawn) [Example 16, 3-amino-6-(5-(3-amino-1,1,1-trifluoro-2-hydroxy-3-oxopropan-2-yl)-2-methylphenyl)-N-((1-cyanocyclobutyl)methyl)pyrazine-2-carboxamide trifluoroacetate], the concentration for half-maximal inhibition (IC50) in assay [1] (Table A1) and in assay [2] (Table A1) was < 100 nM in each case.

In the case of `Cc1ccc(C(O)(C(N)=O)C(F)(F)F)cc1-c1cnc(N)c(C(=O)N[C@H]2CCOC2)n1` (stereo partly drawn) [Example 11, 3-amino-6-(5-(3-amino-1,1,1-trifluoro-2-hydroxy-3-oxopropan-2-yl)-2-methylphenyl)-N-((S)-tetrahydrofuran-3-yl)pyrazine-2-carboxamide trifluoroacetate], the IC50 in assay [1] (Table A1) and in assay [2] (Table A1) was < 100 nM each time.

As to `Cc1ccc(C(O)(CNC(=O)C(C)(C)O)C(F)(F)F)cc1-c1cnc(N)c(C(=O)NC(C)C)n1` (stereo not drawn) [Example 41, 3-Amino-N-isopropyl-6-(2-methyl-5-(1,1,1-trifluoro-2-hydroxy-3-(2-hydroxy-2-methylpropanamido)propan-2-yl)phenyl)pyrazine-2-carboxamide trifluoroacetate], the half-inhibitory concentration (IC50) in assay [1] (Table A1) is < 100 nM; in assay [2] (Table A1), 100 to 500 nM.

Consider `Cc1cnc(C#Cc2nc(-c3cc(C(O)(C(N)=O)C(F)(F)F)ccc3C)cnc2N)cn1` (stereo not drawn) [Example 66, 2-(3-(5-amino-6-((5-methylpyrazin-2-yl)ethynyl)pyrazin-2-yl)-4-methylphenyl)-3,3,3-trifluoro-2-hydroxypropanamide], for which the concentration for half-maximal inhibition (IC50) in assay [1] (Table A2) and in assay [2] (Table A2) was < 100 nM in each case.

For the compound `Cc1ccc(C(O)(C(N)=O)C(F)(F)F)cc1-c1cnc(N)c(C(=O)N[C@@H](C)CC#N)n1` (stereo partly drawn) [Example 8, 3-amino-6-(5-(3-amino-1,1,1-trifluoro-2-hydroxy-3-oxopropan-2-yl)-2-methylphenyl)-N-((S)-1-cyanopropan-2-yl)pyrazine-2-carboxamide trifluoroacetate], the IC50 in assay [1] (Table A1) and in assay [2] (Table A1) was < 100 nM throughout.

On to `CNC(=O)C(O)(c1ccc(C)c(-c2cnc(N)c(-n3cncn3)n2)c1)C(F)(F)F` (stereo not drawn) [Example 94, 2-(3-(5-Amino-6-(1H-1,2,4-triazol-1-yl)pyrazin-2-yl)-4-methylphenyl)-3,3,3-trifluoro-2-hydroxy-N-methylpropanamide trifluoroacetate], for which the concentration for half-maximal inhibition (IC50) in assay [1] (Table A3) and in assay [2] (Table A3) was < 100 nM each time.

Take `Cc1ccc(C(O)(C(N)=O)C(F)F)cc1-c1cnc(N)c(-c2cnn(C)n2)n1` (stereo not drawn) [Example 101, 2-(3-(5-amino-6-(2-methyl-2H-1,2,3-triazol-4-yl)pyrazin-2-yl)-4-methylphenyl)-3,3-difluoro-2-hydroxypropanamide]: the concentration for half-maximal inhibition (IC50) in assay [1] (Table A3) and in assay [2] (Table A3) was < 100 nM each time.

For the compound `Cc1ccc(C(O)(C(N)=O)C(F)(F)F)cc1-c1cnc(N)c(C(=O)NCC(C)(C)C#N)n1` (stereo not drawn) [Example 15, 3-amino-6-(5-(3-amino-1,1,1-trifluoro-2-hydroxy-3-oxopropan-2-yl)-2-methylphenyl)-N-(2-cyano-2-methylpropyl)pyrazine-2-carboxamide trifluoroacetate], the IC50 in assay [1] (Table A1) and in assay [2] (Table A1) was < 100 nM in each case.

Turning to `Cc1ccc(C(O)(C(N)=O)C(F)(F)F)cc1-c1cnc(N)c(C(=O)NC23CCC(C#N)(C2)C3)n1` (stereo not drawn) [Example 24, 3-amino-6-(5-(3-amino-1,1,1-trifluoro-2-hydroxy-3-oxopropan-2-yl)-2-methylphenyl)-N-(4-cyanobicyclo[2.1.1]hexan-1-yl)pyrazine-2-carboxamide trifluoroacetate], the IC50 in assay [1] (Table A1) and in assay [2] (Table A1) was < 100 nM each time.

With `CCNC(=O)c1nc(-c2cc(C(O)(C(N)=O)C(F)(F)F)ccc2C)cnc1N` (stereo not drawn) [Example 7, 3-Amino-6-(5-(3-amino-1,1,1-trifluoro-2-hydroxy-3-oxopropan-2-yl)-2-methylphenyl)-N-ethylpyrazine-2-carboxamide trifluoroacetate], the IC50 in assay [1] (Table A1) and in assay [2] (Table A1) was < 100 nM each time.

Turning to `CNC(=O)C(O)(c1ccc(C)c(-c2cnc(N)c(-c3cnn(C)c3)n2)c1)C(F)(F)F` (stereo not drawn) [Example 96, 2-(3-(5-Amino-6-(1-methyl-1H-pyrazol-4-yl)pyrazin-2-yl)-4-methylphenyl)-3,3,3-trifluoro-2-hydroxy-N-methylpropanamide], the IC50 in assay [1] (Table A3) is < 100 nM; in assay [2] (Table A3) it was 100 to 500 nM.

For the compound `COCC#Cc1nc(-c2cc(C(O)(C(N)=O)C(F)(F)F)ccc2C)cnc1N` (stereo not drawn) [Example 47, 2-(3-(5-amino-6-(3-methoxyprop-1-ynyl)pyrazin-2-yl)-4-methylphenyl)-3,3,3-trifluoro-2-hydroxypropanamide trifluoroacetate], the IC50 in assay [1] (Table A2) and in assay [2] (Table A2) was < 100 nM in each case.

The values are drawn from US20250388553A1 (Incyte Corporation, priority 2018, published 2025).
